Laboratory results as given in EPA's ToxValDB 9.5.
Values joined by “and” are separate entries in the source; they are usually repeats but may differ in a detail not shown here. Equal entries are not always repeated.

System: Rattus norvegicus
[1] = short-term, duration: 4 weeks, inhalation, F, Wistar, Adrenal: Adrenal Cortex, Minimal Diffuse Hypertrophy + Blood: Calcium (CA), Blood + Blood: Chloride (CL), Blood + Blood: Inorganic …
[2] = short-term, duration: 4 weeks, inhalation, F, Wistar, Blood: Albumin/Globulin (A/G) Ratio + Blood: Globulin (G), Blood + Blood: Glucose (GLU), Blood + Blood: Potassium (K), Blood + Kidney: Urea…
[3] = short-term, duration: 4 weeks, inhalation, M, Wistar, Adrenal: Adrenal Cortex, Minimal Diffuse Hypertrophy + Blood: Calcium (CA), Blood + Blood: Total Protein (TP), Blood + Liver: Aspartate …
[4] = short-term, duration: 4 weeks, inhalation, M, Wistar, Blood: Chloride (CL), Blood + Blood: Glucose (GLU), Blood + Blood: Hematocrit (HCT) + Blood: Hemoglobin (HGB) + Blood: Red Blood Cell (RBC…
[5] = short-term, duration: 28 days, oral, gavage, F, Sprague-Dawley, Blood: Hematocrit (HCT) + Blood: Hemoglobin (HGB) + Blood: Red Blood Cell (RBC) + Blood: White Blood Cell (WBC) + Kidney: Total Protein (TP…
[6] = short-term, duration: 28 days, oral, gavage, F, Sprague-Dawley, Blood: Lymphocyte + Blood: Mean Corpuscular Volume (MCV) + Blood: Monocytes + Central Nervous System: Spontaneous Locomotion + Intestine: …
[7] = short-term, duration: 28 days, oral, gavage, F, Sprague-Dawley, Blood: Prothrombin Time (PT) + Renal: Albumin (A), Urine
[8] = short-term, duration: 28 days, oral, gavage, M, Sprague-Dawley, Blood: Hematocrit (HCT) + Blood: Hemoglobin (HGB) + Blood: White Blood Cell (WBC) + Central Nervous System: Spontaneous Locomotion + Hair/…
[9] = short-term, duration: 28 days, oral, gavage, M, Sprague-Dawley, Blood: Mean Cell Hemoglobin (MCH) + Blood: Mean Corpuscular Hemoglobin Concentration (MCHC) + Blood: Mean Corpuscular Volume (MCV) + Blood: …
[10] = short-term, duration: 28 days, oral, gavage, M, Sprague-Dawley, Hair/Fur: Alopecia + Lung: Respiration Rate
[11] = developmental, duration: 14 days, oral, gavage, M/F, Hsd. Han: WIST, generation: F1, F1: Developmental: Bone: Skeletal Variations + F1: Developmental: Placenta: Placenta Weight, Absolute + F1: Developmental: Placenta: …
[12] = developmental, duration: 14 days, oral, gavage, M/F, Wistar Han, generation: F1, F1: Placenta: Placenta Weight, Absolute + F1: Whole Body: Body Weight, Fetal + F1: Whole Body: Fetal Skeletal Variations
[13] = reproduction developmental, duration: 14 days, oral, gavage, F, Hsd. Han: WIST, generation: P0, P0: Developmental: Uterus: Implantation + P0: Developmental: Uterus: Post-Implantation Loss + P0: Developmental: Uterus: Pre-Implantation …
[14] = reproduction developmental, duration: 14 days, oral, gavage, F, Wistar Han, generation: P0, P0: Kidney: Necropsy, Kidney Observation + P0: Small Intestine: Necropsy, Small Intestine Observation + P0: Stomach: Necropsy, Stomach …
[15] = short-term, duration: 28 days, oral, gavage, F, Sprague-Dawley, Adrenal: Adrenal Gland Weight, Absolute + Adrenal: Adrenal Gland Weight, Relative
[16] = short-term, duration: 28 days, oral, gavage, M/F, Sprague-Dawley, Liver: Liver Histopathology
[17] = short-term, duration: 28 days, oral, gavage, M, Sprague-Dawley, Adrenal: Adrenal Gland Weight, Absolute + Adrenal: Adrenal Gland Weight, Relative

Work on `FC(F)(I)C(F)(F)C(F)(F)C(F)(F)C(F)(F)C(F)(F)I` [1,6-Diiodoperfluorohexane] yielded an LOAEL [1] of 45.1 mg/m3, an NOAEL [1] of 14.4 mg/m3 and an NOAEL (short-term, duration: 4 weeks, inhalation, F, Wistar, Adrenal: Adrenal Gland Weight, Relative + Basophils + Blood: Activated Partial Thromboplastin Time (APTT) + Blood: Mean Corpuscular …) of 45.1 mg/m3. The LOAEL [2] was 14.4 mg/m3, the NOAEL [2] was 4.48 mg/m3 and 4.49 mg/m3 and the LOAEL (short-term, duration: 4 weeks, inhalation, F, Wistar, Blood: Cholesterol (CHOL), Total, Blood + Blood: Hematocrit (HCT) + Blood: Hemoglobin (HGB) + Blood: Red Blood Cell (RBC) + Brain: Brain …) was 4.48 mg/m3 and 4.49 mg/m3. The LOAEL [3] was 45.1 mg/m3, the NOAEL [3] was 14.4 mg/m3 and the LOAEL (short-term, duration: 4 weeks, inhalation, M, Wistar, Adrenal: Adrenal Gland Weight, Relative + Blood: Globulin (G), Blood + Blood: Inorganic Phosphorous (PHOS), Blood + Blood: Reticulocytes + …) was 4.48 mg/m3 and 4.49 mg/m3. The NOAEL (short-term, duration: 4 weeks, inhalation, M, Wistar, Basophils + Blood: Activated Partial Thromboplastin Time (APTT) + Blood: Albumin/Globulin (A/G) Ratio + Blood: Mean Corpuscular Hemoglobin (…) was 45.1 mg/m3, the LOAEL [4] was 14.4 mg/m3 and the NOAEL [4] was 4.48 mg/m3 and 4.49 mg/m3. It also gave an NOAEL (short-term, duration: 28 days, oral, gavage, F, Sprague-Dawley, Adrenal: Adrenal Gland Histopathology + Adrenal: Adrenal Gland Weight, Relative + Blood: Globulin (G) + Blood: Phosphorous (inorganic) (PHOS…) of 20 mg/kg-day, an LOAEL (short-term, duration: 28 days, oral, gavage, F, Sprague-Dawley, Blood: Activated Partial Thromboplastin Time (APTT) + Blood: Albumin/Globulin (A/G) Ratio + Blood: Mean Cell Hemoglobin (MCH) + Blood: Mean …) of 1 mg/kg-day and an LOAEL [5] of 3 mg/kg-day. It also gave an NOAEL [5] of 1 mg/kg-day, an LOAEL [6] of 10 mg/kg-day and an NOAEL [6] of 3 mg/kg-day. It also gave an LOAEL [7] of 20 mg/kg-day, an NOAEL [7] of 10 mg/kg-day and an NOAEL (short-term, duration: 28 days, oral, gavage, M, Sprague-Dawley, Adrenal: Adrenal Gland Histopathology + Blood: Globulin (G) + Blood: Lymphocyte + Blood: Monocytes + Blood: Platelet Count (PLT) + Blood: …) of 20 mg/kg-day. The LOAEL (short-term, duration: 28 days, oral, gavage, M, Sprague-Dawley, Adrenal: Adrenal Gland Weight, Relative + Blood: Activated Partial Thromboplastin Time (APTT) + Blood: Albumin/Globulin (A/G) Ratio + Brain…) was 1 mg/kg-day, the LOAEL [8] was 3 mg/kg-day and the NOAEL [8] was 1 mg/kg-day. It also gave an LOAEL [9] of 10 mg/kg-day, an NOAEL [9] of 3 mg/kg-day and an LOAEL [10] of 20 mg/kg-day. For the same compound, the NOAEL [10] was 10 mg/kg-day.
Compound `C=C(C)C(=O)OCCC(F)(F)C(F)(F)C(F)(F)C(F)(F)C(F)(F)C(F)(F)F` [2-(Perfluorohexyl)ethyl methacrylate] has an LOAEL [11] of 1000 mg/kg-day, an NOAEL [11] of 320 mg/kg-day and an LEL [12] of 1000 mg/kg-day. It also gave an NEL [12] of 320 mg/kg-day, an NEL (developmental, duration: 14 days, oral, gavage, M/F, Wistar Han, generation: F1, F1: Placenta: Placenta Weight, Relative + F1: Uterus: Fetuses, Dead + F1: Uterus: Fetuses, Live + F1: Whole Body: Fetal External …) of 1000 mg/kg-day and an LOAEL [13] of 1000 mg/kg-day. It also gave an NOAEL [13] of 320 mg/kg-day, an NOAEL (reproduction developmental, duration: 14 days, oral, gavage, F, Hsd. Han: WIST, generation: P0, P0: Reproductive: Ovary: Corpora Lutea) of 1000 mg/kg-day and an LEL [14] of 1000 mg/kg-day. The NEL [14] was 320 mg/kg-day, the NEL (reproduction developmental, duration: 14 days, oral, gavage, F, Wistar Han, generation: P0, P0: Ovary: Corpora Lutea + P0: Uterus: Implantation + P0: Uterus: Post-Implantation Loss + P0: Uterus: Pre-Implantation Loss + P0: Whole …) was 1000 mg/kg-day and the NEL (short-term, duration: 28 days, oral, gavage, F, Crl:CD(SD), Adrenal: Adrenal Gland Weight, Absolute + Adrenal: Adrenal Gland Weight, Absolute, Recovery + Adrenal: Adrenal Gland Weight, Relative + …) was 25 mg/kg-day. The NEL (short-term, duration: 28 days, oral, gavage, F, Crl:CD(SD), Liver: Liver Weight, Absolute + Liver: Liver Weight, Relative + Teeth: Decreased Iron Pigment, Ameloblasts (28 d)) was 5 mg/kg-day, the LEL (short-term, duration: 28 days, oral, gavage, F, Crl:CD(SD), Liver: Liver Weight, Absolute + Liver: Liver Weight, Relative + Teeth: Decreased Iron Pigment, Ameloblasts (28 d) + Teeth: Teeth, Mottled (…) was 25 mg/kg-day and the NEL (short-term, duration: 28 days, oral, gavage, M, Crl:CD(SD), Adrenal: Adrenal Gland Weight, Absolute + Adrenal: Adrenal Gland Weight, Absolute, Recovery + Adrenal: Adrenal Gland Weight, Relative + …) was 25 mg/kg-day. The NEL (short-term, duration: 28 days, oral, gavage, M, Crl:CD(SD), Kidney: Kidney Weight, Relative + Teeth: Decreased Iron Pigment, Ameloblasts (28 d)) was 5 mg/kg-day and the LEL (short-term, duration: 28 days, oral, gavage, M, Crl:CD(SD), Kidney: Kidney Weight, Relative + Teeth: Decreased Iron Pigment, Ameloblasts (28 d) + Teeth: Teeth, Mottled (42 d)) was 25 mg/kg-day.
Work on `CCOC(F)(C(F)(F)C(F)(F)C(F)(F)F)C(F)(C(F)(F)F)C(F)(F)F` (stereo not drawn) [3-Ethoxyperfluoro(2-methylhexane)] yielded an NOAEL (developmental, duration: 26 days, parental, M/F, Sprague-Dawley, generation: F1, F1: Whole Body: Clinical Observations + F1: Whole Body: Litter Size + F1: Whole Body: Necropsy Appeared Normal + F1: Whole Body: Pup Body …) of 1000 mg/kg-day, an NOAEL (reproduction developmental, duration: 2 weeks, oral, gavage, F, Sprague-Dawley, generation: P0, P0: Ovary: Ovary, Non-Neoplastic Lesions + P0: Uterus: Estrous Cycle + P0: Uterus: Implantation + P0: Whole Body: Clinical Observations + P0…) of 1000 mg/kg-day and an NOAEL (reproduction developmental, duration: 2 weeks, oral, gavage, M, Sprague-Dawley, generation: P0, P0: Epididymis: Epididymis Weight, Absolute + P0: Epididymis: Epididymis Weight, Relative + P0: Epididymis: Epididymis, Non-Neoplastic …) of 1000 mg/kg-day. For the same compound, the LOAEL [15] was 1000 mg/kg-day, the NOAEL [15] was 200 mg/kg-day and the NOAEL (short-term, duration: 28 days, oral, gavage, F, Sprague-Dawley, Ovary: Ovary Weight, Absolute + Ovary: Ovary Weight, Relative + Spleen: Spleen Weight, Absolute) was 1000 mg/kg-day. The LOAEL (short-term, duration: 28 days, oral, gavage, F, Sprague-Dawley, Spleen: Spleen Weight, Relative) was 40 mg/kg-day, the NOAEL (short-term, duration: 28 days, oral, gavage, M/F, Sprague-Dawley, Blood: Clinical Chemistry, Unspecified + Kidney: Urinalysis, Unspecified + Whole Body: Body Weight Change + Whole Body: Clinical …) was 1000 mg/kg-day and the LOAEL [16] was 1000 mg/kg-day. It also gave an NOAEL [16] of 200 mg/kg-day, an LOAEL [17] of 1000 mg/kg-day and an NOAEL [17] of 200 mg/kg-day. It also gave an LOAEL (short-term, duration: 28 days, oral, gavage, M, Sprague-Dawley, Spleen: Spleen Weight, Absolute + Spleen: Spleen Weight, Relative) of 40 mg/kg-day.
